Source: patent publication US12252714B2, “Halogenation of complex organic compounds” (REGENTS OF THE UNIVERSITY OF MICHIGAN, priority 2018, dated 2025)

Legend:
MalA = biological target: T1, MalA (Malbranchea aurantiaca, UniProt L0E155); experiment: Michaelis-Menten kinetics of MalA chlorination reactions; format: biochemical
T1 construct: The malA coding region was amplified from the cDNA template by PCR; made in house; host or cells: E. coli BL21 (DE3) with pGro7 (GroEL/GroES) chaperone plasmid
T1 sequence (L0E155 whole entry): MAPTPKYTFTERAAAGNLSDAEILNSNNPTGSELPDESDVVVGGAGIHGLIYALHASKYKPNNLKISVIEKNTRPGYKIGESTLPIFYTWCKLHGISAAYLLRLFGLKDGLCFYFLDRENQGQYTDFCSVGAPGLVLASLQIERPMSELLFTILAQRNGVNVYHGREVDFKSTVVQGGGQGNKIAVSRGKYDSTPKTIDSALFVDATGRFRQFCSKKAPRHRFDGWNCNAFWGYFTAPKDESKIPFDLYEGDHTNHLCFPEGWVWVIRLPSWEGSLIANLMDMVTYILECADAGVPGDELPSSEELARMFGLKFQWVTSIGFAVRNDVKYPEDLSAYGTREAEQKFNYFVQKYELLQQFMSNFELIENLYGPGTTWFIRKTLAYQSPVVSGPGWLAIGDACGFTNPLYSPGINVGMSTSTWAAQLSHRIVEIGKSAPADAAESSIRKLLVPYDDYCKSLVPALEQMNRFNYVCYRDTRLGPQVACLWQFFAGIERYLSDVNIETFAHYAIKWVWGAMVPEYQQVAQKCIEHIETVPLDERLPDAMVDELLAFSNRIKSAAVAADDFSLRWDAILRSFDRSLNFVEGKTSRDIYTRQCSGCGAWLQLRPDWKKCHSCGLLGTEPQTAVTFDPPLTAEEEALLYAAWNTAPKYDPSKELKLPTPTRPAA
Procedure: Substrates malbrancheamide B (compound 3) and isomalbrancheamide B (compound 4) to product malbrancheamide (compound 1). Reactions were set up in a total volume of 250 μL with the following components: 1.1 μM MalA, 44 μM HpaC flavin reductase, 100 μM FAD, 50 mM NaCl, 3.6 mM NADH, and a variety of substrate concentrations ranging from 1 μM to 60 μM. Reactions were quenched with methanol by removing 50 μL at each time point (2, 5, 10, 15 minutes). Reactions were analyzed on a Schimadzu HPLC with the following LC time program: 40% acetonitrile for 1 minute, gradient over 6 minutes from 40-85% acetonitrile, 85% acetonitrile for 1 minute, gradient over 1 minute to 40% acetonitrile, re-equilibration to 40% acetonitrile for 3 minutes. The absorbance was measured at 240 nm and the mobile phase consisted of water and acetonitrile. A Phenomenex Lux cellulose-3, cellulose Tris (4-methylbenzoate) 250×4.6 mm column was used for separation. GraphPad Prism (Version 6.01) software was used to plot the initial velocities against the substrate concentration and to determine the kinetic constants kcat and Km.
Substrate premalbrancheamide (compound 2) to products isomalbrancheamide B (compound 4) and malbrancheamide B (compound 3). Reactions were set up in a total volume of 250 μL with the following components: 1.8 μM MalA, 44 μM HpaC, 100 μM FAD, 50 mM NaCl, 3.6 mM NADH, and a variety of substrate concentrations ranging from 5 μM to 80 μM. Reactions were quenched with 100 μL methanol by removing 50 μL at each time point (2, 5, 7, 10 minutes). Reactions were analyzed on a Schimadzu HPLC with the following LC time program: 34% acetonitrile for 1 minute, gradient over 11 minutes to 62% acetonitrile, 62% acetonitrile for 30 seconds, gradient over 30 seconds to 34% acetonitrile, re-equilibration to 34% for 3 minutes. The absorbance was measured at 240 nm and the mobile phase consisted of water and acetonitrile. A Phenomenex Lux cellulose-3 Tris (4-methylbenzoate) 250×4.6 mm column was used for separation.
Michaelis-Menten kinetic parameters were determined for the natural chlorination reactions of MalA. […] These catalytic efficiencies are fairly high compared to those of the eukaryotic FDH Rdc2, which are 2.93 min−1 mM−1 for the initial chlorination reaction and 0.11 min−1 mM−1 for the second chlorination reaction.^4

MalA′ = experiment: Co-crystallization with MalA′; format: binding, Malbranchea graminicola
Procedure: Crystallization conditions. […] The purified MalA′ was dialyzed overnight into a 20 mM HEPES pH 7 buffer with 200 mM NaCl or 300 mM NaCl to remove glycerol, and then supplemented with an equimolar quantity of FAD. […] For active site complexes with compounds 2, 3, and 4, MalA′ was pre-incubated with a four-fold molar excess of substrate. Crystals were grown by vapor diffusion from 1:2 mixtures of 5 mg/mL MalA′ pre-incubated with compound 2, 3 or 4 and a well solution containing 2 M (NH4)2SO4, 0.2 M Li2SO4, 5 mM CdCl2, and 0.1 M Bis-Tris pH 5.5. Crystals were cryoprotected in well solution augmented with 10% glycerol and flash-cooled in liquid nitrogen.

[1] = second chlorination, to compound 1
[2] = chlorination, compound 2 to compound 3
[3] = chlorination, compound 2 to compound 4

In the case of `CC1(C)c2[nH]c3ccc(Cl)cc3c2C[C@@]23CN4CCC[C@]4(C[C@@H]12)C(=O)N3` [compound 4, isomalbrancheamide B], the Km (MalA; [1]) is reported as 4 µM and the kcat (MalA; [1]) is reported as 0.002 s⁻¹.

`CC1(C)c2[nH]c3ccccc3c2CC23CN4CCCC4(CC21)C(=O)N3` (stereo not drawn) [compound 2, premalbrancheamide] showed a Km (MalA; [2]) of 7 µM, a kcat (MalA; [2]) of 0.0013 s⁻¹ and a Km (MalA; [3]) of 7.5 µM. For the same compound, the kcat (MalA; [3]) was 0.0015 s⁻¹.

With `CC1(C)c2[nH]c3cc(Cl)c(Cl)cc3c2C[C@@]23CN4CCC[C@]4(C[C@@H]12)C(=O)N3` [compound 1, malbrancheamide] the “binding in MalA′ crystals” value (MalA′) was “did not bind in crystals”.

`CC1(C)c2[nH]c3cc(Cl)ccc3c2C[C@@]23CN4CCC[C@]4(C[C@@H]12)C(=O)N3` [compound 3, malbrancheamide B] was tested, and the Km (MalA; [1]) was 4.4 µM and the kcat (MalA; [1]) was 0.002 s⁻¹.
